In publication PMC4878443 (Journal of medicinal chemistry, 2015):

Tests used:
human LSD1 = human LSD1 (Homo sapiens, UniProt O60341); experiment: LSD1 inhibition, mass spectrometry; type: biochemical
[1] = system: normal fibroblast cells WI-38; experiment: Cell growth inhibition; type: cell-based

Compound	LSD1 inhibition in words (human LSD1)	fold less active against LSD1 than compound 17 (human LSD1; Ki ratio to compound 17)	activity against growth of normal cells in words [1]
c1ccc(-c2ccc(OCC3CCNCC3)cn2)cc1 [Compound 3]	inactive	–	–
c1ccc(-c2cc(OCC3CCNCC3)cnc2-c2ccccc2)cc1 [Compound 11]	inactive	–	–
C#Cc1ccc(-c2cc(OCC3CCNCC3)cnc2-c2ccc(C)cc2)cc1 [Compound 28]	activity loss	> 1,700 fold	–
Cc1ccc(-c2ncc(OCC3CCNCC3)cc2-c2ccc(C(=O)O)cc2)cc1 [Compound 29]	completely lose inhibitory activities	–	–
Cc1ccc(-c2ncc(OCC3CCNCC3)cc2-c2ccc(CO)cc2)cc1 [Compound 30]	completely lose inhibitory activities	–	–
Cc1ccc(-c2ncc(OCC3CCNCC3)cc2-c2ccc(CN3CCCCC3)cc2)cc1 [Compound 36]	almost inactive	–	–
Cc1ccc(-c2ncc(O)cc2-c2ccc(C#N)cc2)cc1 [Compound 44]	Loss of activity	–	–
Cc1ccc(-c2ncc(OCc3ccccc3)cc2-c2ccc(C#N)cc2)cc1 [Compound 45]	Loss of activity	–	–
CN1CCN(C(=O)CN[C@H]2C[C@@H]2c2ccc(-c3ccc(F)nc3)cc2)CC1 [Compound S2]	–	–	inactive
